Test results from patent publication US6914045B2, “Glycopeptide antibiotics” (Wyeth Holdings Corporation, priority 2001, dated 2005).
Values after ≈ are worked out from the molar mass of the structure shown.

Experiments:
Assay in all cases: in vitro antibacterial evaluation, MIC by broth dilution
Format in all cases: cell-based
Staphylococcus sp. = details: broth dilution, 18 hours at 35° C.
Procedure, shortened: (§1)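 Read-out: the lowest concentration at which the test strain fails to grow. Serial dilutions (64-0.06 μg/mL) in Muller-Hinton II […], 5×10^5 CFU/mL inoculum, NCCLS M7-A2 procedure.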

Streptococcus sp. = details: broth dilution, 18 hours at 35° C.
Procedure, shortened: as §1

Escherichia coli = details: 18 hours at 35° C., strain ATCC 25922
Procedure, shortened: as §1

Enterococcus sp. = details: broth dilution, 18 hours at 35° C.
Procedure, shortened: as §1

With CC(c1ccccc1)C1NC(=O)CNC(=O)C(CO)NC(=O)C(C(O)C2CNC(=N)N2C2OC(CO)C(O)C(O)C2O)NC(=O)C(C(O)C2CNC(=N)N2)NC(=O)C(Cc2ccc(OC3OC(COC(=O)OCc4ccccc4)C(OC4OC(CO)C(O)C(O)C4O)C(O)C3O)cc2)NC1=O (stereo not drawn) [Example 101, Cyclo[glycyl-β-methylphenylalanyl-O-[4-O-hexopyranosyl-6-O-[(phenylmethoxy)carbonyl]-hexopyranosyl]tyrosyl-3-(2-iminoimidazolidin-4-yl)seryl-3-(3-hexopyranosyl-2-iminoimidazolidin-4-yl)serylseryl]] the “MIC Coagulase Negative Staphylococcus (GC 4547)” value (Staphylococcus sp.) was 2 µg/mL (≈ 1.4 µM), the “MIC Coagulase Negative Staphylococcus (GC 4548)” value (Staphylococcus sp.) was 2 µg/mL (≈ 1.4 µM) and the “MIC Coagulase Negative Staphylococcus (GC 4549)” value (Staphylococcus sp.) was 1 µg/mL (≈ 0.7 µM). The “MIC Coagulase Negative Staphylococcus (GC 4551)” value (Staphylococcus sp.) was 8 µg/mL (≈ 5.6 µM), the “MIC Coagulase Negative Staphylococcus (ID-3941)” value (Staphylococcus sp.) was 1 µg/mL (≈ 0.7 µM) and the “MIC Staphylococcus aureus (ATCC 29213)” value (Staphylococcus sp.) was 4 µg/mL (≈ 2.8 µM). For the same molecule, the “MIC Staphylococcus aureus (GC 1131)” value (Staphylococcus sp.) was 4 µg/mL (≈ 2.8 µM), the “MIC Staphylococcus aureus (GC 4541)” value (Staphylococcus sp.) was 4 µg/mL (≈ 2.8 µM) and the “MIC Staphylococcus aureus (GC 4542)” value (Staphylococcus sp.) was 8 µg/mL (≈ 5.6 µM). The “MIC Staphylococcus aureus (GC 4544)” value (Staphylococcus sp.) was 8 µg/mL (≈ 5.6 µM), the “MIC Staphylococcus aureus (GC 4545)” value (Staphylococcus sp.) was 4 µg/mL (≈ 2.8 µM) and the “MIC Staphylococcus aureus-SMITH (GC 4543)” value (Staphylococcus sp.) was 4 µg/mL (≈ 2.8 µM). For the same molecule, the “MIC Staphylococcus haemolyticus (GC 4546)” value (Staphylococcus sp.) was 4 µg/mL (≈ 2.8 µM), the “MIC Staphylococcus haemolyticus (GC 4546)” value (Staphylococcus sp.; strain GC 4546) was 4 µg/mL (≈ 2.8 µM) and the “MIC Coagulase Negative Staphylococcus (GC 4547)” value (Staphylococcus sp.; strain GC 4547) was 2 µg/mL (≈ 1.4 µM). The “MIC Coagulase Negative Staphylococcus (GC 4548)” value (Staphylococcus sp.; strain GC 4548) was 2 µg/mL (≈ 1.4 µM), the “MIC Coagulase Negative Staphylococcus (GC 4549)” value (Staphylococcus sp.; strain GC 4549) was 1 µg/mL (≈ 0.7 µM) and the “MIC Coagulase Negative Staphylococcus (GC 4551)” value (Staphylococcus sp.; strain GC 4551) was 8 µg/mL (≈ 5.6 µM). For the same molecule, the “MIC Coagulase Negative Staphylococcus (ID-3941)” value (Staphylococcus sp.; strain ID-3941) was 1 µg/mL (≈ 0.7 µM), the “MIC Staphylococcus aureus-SMITH (GC 4543)” value (Staphylococcus sp.; strain SMITH GC 4543) was 4 µg/mL (≈ 2.8 µM) and the “MIC Staphylococcus aureus (ATCC 29213)” value (Staphylococcus sp.; strain ATCC 29213) was 4 µg/mL (≈ 2.8 µM). The “MIC Staphylococcus aureus (GC 1131)” value (Staphylococcus sp.; strain GC 1131) was 4 µg/mL (≈ 2.8 µM), the “MIC Staphylococcus aureus (GC 4541)” value (Staphylococcus sp.; strain GC 4541) was 4 µg/mL (≈ 2.8 µM) and the “MIC Staphylococcus aureus (GC 4542)” value (Staphylococcus sp.; strain GC 4542) was 8 µg/mL (≈ 5.6 µM). The “MIC Staphylococcus aureus (GC 4544)” value (Staphylococcus sp.; strain GC 4544) was 8 µg/mL (≈ 5.6 µM), the “MIC Staphylococcus aureus (GC 4545)” value (Staphylococcus sp.; strain GC 4545) was 4 µg/mL (≈ 2.8 µM) and the “MIC Streptococcus agalactiae (GC 4564)” value (Streptococcus sp.; Streptococcus agalactiae (GC 4564)) was 2 µg/mL (≈ 1.4 µM). The “MIC Streptococcus pneumoniae (GC 4565)” value (Streptococcus sp.; Streptococcus pneumoniae (GC 4565)) was under 0.5 µg/mL, the “MIC Streptococcus pyogenes (ID-3187)” value (Streptococcus sp.; Streptococcus pyogenes (ID-3187)) was 2 µg/mL (≈ 1.4 µM) and the “MIC Streptococcus agalactiae (GC 4564)” value (Streptococcus sp.; strain GC 4564) was 2 µg/mL (≈ 1.4 µM). For the same molecule, the “MIC Streptococcus pneumoniae (GC 4565)” value (Streptococcus sp.; strain GC 4565) was under 0.5 µg/mL, the “MIC Streptococcus pyogenes (ID-3187)” value (Streptococcus sp.; strain ID-3187) was 2 µg/mL (≈ 1.4 µM) and the “MIC Escherichia coli (ATCC 25922)” value (Escherichia coli) was over 64 µg/mL. For the same molecule, the “MIC Enterococcus avium (GC 4558)” value (Enterococcus sp.; Enterococcus avium (GC 4558)) was 32 µg/mL (≈ 22.4 µM), the “MIC Enterococcus faecalis (ATCC 29212)” value (Enterococcus sp.; Enterococcus faecalis (ATCC 29212)) was 32 µg/mL (≈ 22.4 µM) and the “MIC Enterococcus faecalis (GC 2242)” value (Enterococcus sp.; Enterococcus faecalis (GC 2242)) was 16 µg/mL (≈ 11.2 µM). The “MIC Enterococcus faecalis (GC 4552)” value (Enterococcus sp.; Enterococcus faecalis (GC 4552)) was 64 µg/mL (≈ 44.8 µM), the “MIC Enterococcus faecalis (GC 4553)” value (Enterococcus sp.; Enterococcus faecalis (GC 4553)) was 32 µg/mL (≈ 22.4 µM) and the “MIC Enterococcus faecalis (GC 4554)” value (Enterococcus sp.; Enterococcus faecalis (GC 4554)) was 64 µg/mL (≈ 44.8 µM). The “MIC Enterococcus faecium (GC 2243)” value (Enterococcus sp.; Enterococcus faecium (GC 2243)) was 32 µg/mL (≈ 22.4 µM), the “MIC Enterococcus faecium (GC 4556)” value (Enterococcus sp.; Enterococcus faecium (GC 4556)) was 32 µg/mL (≈ 22.4 µM) and the “MIC Enterococcus faecium (GC 4557)” value (Enterococcus sp.; Enterococcus faecium (GC 4557)) was 2 µg/mL (≈ 1.4 µM). The “MIC Enterococcus faecalis (ATCC 29212)” value (Enterococcus sp.; strain ATCC 29212) was 32 µg/mL (≈ 22.4 µM), the “MIC Enterococcus faecalis (GC 2242)” value (Enterococcus sp.; strain GC 2242) was 16 µg/mL (≈ 11.2 µM) and the “MIC Enterococcus faecium (GC 2243)” value (Enterococcus sp.; strain GC 2243) was 32 µg/mL (≈ 22.4 µM). For the same molecule, the “MIC Enterococcus faecalis (GC 4552)” value (Enterococcus sp.; strain GC 4552) was 64 µg/mL (≈ 44.8 µM), the “MIC Enterococcus faecalis (GC 4553)” value (Enterococcus sp.; strain GC 4553) was 32 µg/mL (≈ 22.4 µM) and the “MIC Enterococcus faecalis (GC 4554)” value (Enterococcus sp.; strain GC 4554) was 64 µg/mL (≈ 44.8 µM). For the same molecule, the “MIC Enterococcus faecium (GC 4556)” value (Enterococcus sp.; strain GC 4556) was 32 µg/mL (≈ 22.4 µM), the “MIC Enterococcus faecium (GC 4557)” value (Enterococcus sp.; strain GC 4557) was 2 µg/mL (≈ 1.4 µM) and the “MIC Enterococcus avium (GC 4558)” value (Enterococcus sp.; strain GC 4558) was 32 µg/mL (≈ 22.4 µM).
